pIC50: −log10 of the molar value. Activity calls are given as the source filed them. No cut-off for these calls is given here.
Assays:
[1] = Cytotoxicity against human MRC5 cells assessed as reduction in cell viability incubated for 6 days by Hoechst 33342 staining based microscopic analysis; conditions: time 6 day
[2] = Cytotoxicity against human ARPE-19 cells assessed as reduction in cell viability incubated for 6 days by Hoechst 33342 staining based microscopic analysis; conditions: time 6 day
Human betaherpesvirus 5 [3] = assay: Antiviral activity against Human Cytomegalovirus infected in human MRC5 cells assessed as reduction in infection rate incubated for 6 days by Hoechst 33342 staining based microscopic analysis; type: functional, cell-based; conditions: Human betaherpesvirus 5, MRC5, 144 h; read-out: IC50
Human betaherpesvirus 5 [4] = assay: Antiviral activity against human Cytomegalovirus infected in human ARPE-19 cells assessed as reduction in infection rate incubated for 6 days by Hoechst 33342 staining based microscopic analysis; type: functional, cell-based
Human betaherpesvirus 5 [5] = assay: Antiviral activity against human Cytomegalovirus harboring ANCHOR infected in human MRC5 cells assessed as reduction in infection rate at 2.5 to 5 uM incubated for 6 days by Hoechst 33342 staining based microscopic analysis; type: functional, cell-based; conditions: dose microM 2.5-5, time 6.0 day
Human betaherpesvirus 5 [6] = assay: Antiviral activity against human Cytomegalovirus harboring ANCHOR infected in human ARPE-19 cells assessed as reduction in infection rate at 1.25 to 2.5 uM incubated for 10 days by Hoechst 33342 staining based microscopic analysis; type: functional, cell-based; conditions: dose microM 1.25-2.5, time 10.0 day
[7] = Drug uptake in rabbit RK13 cells incubated for 24 hrs by Hoechst staining based microscopic analysis; type: ADME, cell-based, Oryctolagus cuniculus; conditions: rk13, 24 h
[8] = Selectivity index, ratio of CC50 for human MRC5 cells to IC50 for human Cytomegalovirus infected in human MRC5 cells incubated for 6 days; type: toxicity, cell-based; conditions: time 6 day, read-out: Ratio CC50/IC50
Human betaherpesvirus 5 [9] = assay: Antiviral activity against human Cytomegalovirus infected in human ARPE-19 cells assessed as reduction in infection rate incubated for 10 days by Hoechst 33342 staining based microscopic analysis; type: functional, cell-based; conditions: Human betaherpesvirus 5, ARPE-19, 240 h; read-out: IC50
[10] = Selectivity index, ratio of CC50 for human MRC5 cells to IC50 for human Cytomegalovirus infected in human ARPE-19 cells incubated for 10 days; type: toxicity, cell-based; conditions: time 6 day, read-out: Ratio CC50/IC50
Human betaherpesvirus 5 [11] = assay: Antiviral activity against human Cytomegalovirus harboring ANCHOR infected in human MRC5 cells assessed as reduction in infection rate at 0.15 to 0.625 uM incubated for 6 days by Hoechst 33342 staining based microscopic analysis relative to control; type: functional, cell-based; conditions: dose microM 0.625-0.15, time 6.0 day
Human betaherpesvirus 5 [12] = assay: Antiviral activity against human Cytomegalovirus harboring ANCHOR infected in ARPE-19 cells assessed as reduction in replication by measuring UL44 expression at 0.6 to 0.15 uM by immunofluorescence B31assay; type: functional, cell-based; conditions: dose microM 0.625-0.15, time 10.0 day
Human betaherpesvirus 5 [13] = assay: Antiviral activity against human Cytomegalovirus infected in human MRC5 cells assessed as reduction in viral replication incubated for 6 days by Hoechst 33342 staining based microscopic analysis; type: functional, cell-based; conditions: Human betaherpesvirus 5, MRC5, 144 h
Human betaherpesvirus 5 [14] = assay: Antiviral activity against human Cytomegalovirus infected in human ARPE-19 cells assessed as reduction in infection rate incubated for 12 days by Hoechst 33342 staining based microscopic analysis; type: functional, cell-based; conditions: Human betaherpesvirus 5, ARPE-19, 288 h
[15] = Selectivity index, ratio of CC50 for human MRC5 cells to IC50 for human Cytomegalovirus infected in human ARPE-19 cells incubated for 12 days; type: toxicity, cell-based; conditions: time 6 day, read-out: Ratio CC50/IC50
Human betaherpesvirus 5 [16] = assay: Antiviral activity against human Cytomegalovirus infected in human ARPE-19 cells assessed as reduction in viral replication incubated for 13 days by Hoechst 33342 staining based microscopic analysis; type: functional, cell-based; conditions: Human betaherpesvirus 5, ARPE-19, 312 h
[17] = Selectivity index, ratio of CC50 for human MRC5 cells to IC50 for human Cytomegalovirus infected in human ARPE-19 cells incubated for 13 days; type: toxicity, cell-based; conditions: time 6 day, read-out: Ratio CC50/IC50

pIC50 (Human betaherpesvirus 5 [9])	Compound	CC50 at 144 h [1] [nM]	pIC50 (Human betaherpesvirus 5 [3])	selectivity ratio at 144 h [8]	selectivity ratio at 144 h [10]	other results
6.30	Fc1cc(F)c(F)c(-c2c3ccc([nH]3)c(-c3c(F)c(F)cc(F)c3F)c3nc(c4ccc([nH]4)c(-c4c(F)c(F)cc(F)c4F)c4ccc2[nH]4)C=C3)c1	21500	5.94	18.5	62	Drug uptake [7]: Active
6.48	O=[N+]([O-])c1ccc(-c2c3ccc([nH]3)c(-c3c(F)c(F)cc(F)c3F)c3nc(c4ccc([nH]4)c(-c4c(F)c(F)cc(F)c4F)c4ccc2[nH]4)C=C3)c(C(F)(F)F)c1	11000	5.61	4.49	18.6	–

Further lines, the compound ahead of its results:

Compound	pIC50 (Human betaherpesvirus 5 [9])	CC50 at 144 h [1] [nM]	pIC50 (Human betaherpesvirus 5 [3])	selectivity ratio at 144 h [8]	selectivity ratio at 144 h [10]	other results
Fc1cc(F)c(F)c(-c2c3nc(c4ccc([nH]4)c(-c4cc(F)cc(F)c4F)c4ccc([nH]4)c(-c4cc(F)cc(F)c4F)c4ccc2[nH]4)C=C3)c1	–	> 50000	5.22	> 7	–	CC50 at 144 h [2]: > 50000 nM; pIC50 (Human betaherpesvirus 5 [4]; Human betaherpesvirus 5, ARPE-19, 144 h, read-out: IC50): 5.42; Activity (Human betaherpesvirus 5 [5]): inactive; Activity (Human betaherpesvirus 5 [6]): inactive; Drug uptake [7]: Active
CN(C)c1c(F)c(F)c(-c2c3nc(c4ccc([nH]4)c(-c4c(F)c(F)c(N(C)C)c(F)c4F)c4ccc([nH]4)c(-c4c(F)c(F)cc(F)c4F)c4ccc2[nH]4)C=C3)c(F)c1F	5.73	> 50000	5.72	> 26.2	26.6	–
Fc1cc(F)c(F)c(-c2c3nc(c4ccc([nH]4)c(-c4c(F)c(F)cc(F)c4F)c4ccc([nH]4)c(-c4c(F)c(F)nc(F)c4F)c4ccc2[nH]4)C=C3)c1F	7.30	3400	7.05	37.8	450	Activity (Human betaherpesvirus 5 [11]): Active; Activity (Human betaherpesvirus 5 [12]): Active
Fc1cc(F)c(-c2c3nc(c4ccc([nH]4)c(-c4c(F)cc(F)cc4F)c4ccc([nH]4)c(-c4c(F)cc(F)cc4F)c4ccc2[nH]4)C=C3)c(F)c1	–	> 50000	–	> 9	–	CC50 at 144 h [2]: > 50000 nM; IC50 (Human betaherpesvirus 5 [4]; arpe-19): Not Active; pIC50 (Human betaherpesvirus 5 [13]): 5.25
Fc1cc(-c2c3nc(c4ccc([nH]4)c(-c4cc(F)c(F)c(F)c4F)c4ccc([nH]4)c(-c4cc(F)c(F)c(F)c4F)c4ccc2[nH]4)C=C3)c(F)c(F)c1F	–	> 50000	5.19	> 7	–	pIC50 (Human betaherpesvirus 5 [14]): 5.43; selectivity ratio at 144 h [15]: > 13
Fc1cc(-c2c3ccc([nH]3)c(-c3c(F)c(F)cc(F)c3F)c3nc(c4ccc([nH]4)c(-c4c(F)c(F)cc(F)c4F)c4ccc2[nH]4)C=C3)ccn1	7.30	650	7.22	10.8	114	–
O=[N+]([O-])c1ccc(-c2c3ccc([nH]3)c(-c3c(F)c(F)cc(F)c3F)c3nc(c4ccc([nH]4)c(-c4c(F)c(F)cc(F)c4F)c4ccc2[nH]4)C=C3)s1	–	4170	6.57	15.6	–	pIC50 (Human betaherpesvirus 5 [16]): 6.89; selectivity ratio at 144 h [17]: 385

Reference: ChEMBL document CHEMBL4699427, “A3- and A2B-fluorocorroles: synthesis, X-ray characterization and antiviral activity evaluation against human cytomegalovirus infection” (RSC Med Chem, 2020)
